The values that follow come from PubChem BioAssay (NCI).

Among the test systems are SF-268 CNS; NCI-H460 lung; SK-MEL-5 melanoma; SNB-75 CNS; M14 melanoma; MCF7 breast; MALME-3M melanoma; 786-0 renal; A498 renal; OVCAR-5 ovarian.
Common to all, as to experiment: NCI-60 cell line screen, 48 h

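Step 1: Grow cells in 96-well plates. Step 2: Expose to compound for 48 hours at 5 concentrations. Step 3: Interpolate endpoints linearly; if unreached, use highest concentration. GI50: concentration for 50% inhibition of growth. TGI is the concentration that stops growth completely.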 A value given as a limit tells only on which side of the number the result lay.

On to `Cc1nc(N)sc1N=Nc1ccccc1Br`, for which the TGI in the assay on SF-268 CNS was 40.4 µM; with NCI-H460 lung it was above 67.4 µM; with SK-MEL-5 melanoma, 48.6 µM; in the assay with SNB-75 CNS it was 37.5 µM; in the assay on M14 melanoma, 67.6 µM; in the assay with MCF7 breast it was 70.2 µM. Moreover, the TGI in the assay with MALME-3M melanoma is 61 µM; in the assay on 786-0 renal, 69.5 µM; with A498 renal, 43.2 µM; in the assay with OVCAR-5 ovarian, above 90.5 µM.
With `N#Cc1nn(-c2cc(=O)[nH]c3ccc(Cl)cc23)c(N)c1C#N`, the GI50 in the assay on SF-268 CNS is above 100 µM; in the assay with NCI-H460 lung, above 100 µM; with SK-MEL-5 melanoma it was above 100 µM; in the assay with SNB-75 CNS, above 100 µM; in the assay on M14 melanoma it was above 100 µM; in the assay on MCF7 breast, 82.3 µM. Further, the GI50 in the assay on MALME-3M melanoma, in the assay on 786-0 renal, with A498 renal and in the assay on OVCAR-5 ovarian was above 100 µM in each case. In addition, the TGI with SF-268 CNS, in the assay with NCI-H460 lung, in the assay on SK-MEL-5 melanoma, in the assay on SNB-75 CNS, in the assay with M14 melanoma and with MCF7 breast was above 100 µM throughout. Besides, the TGI with MALME-3M melanoma, in the assay with 786-0 renal, in the assay on A498 renal and in the assay with OVCAR-5 ovarian was above 100 µM in each case.
Consider `CC1CC2CCCC(O)=C2C(=O)O1` (stereo not given), for which the TGI in the assay on SF-268 CNS, in the assay on NCI-H460 lung, with SK-MEL-5 melanoma, with SNB-75 CNS, in the assay with M14 melanoma and with MCF7 breast was above 100 µM throughout. For the same molecule, the TGI with MALME-3M melanoma, in the assay on 786-0 renal, in the assay with A498 renal and with OVCAR-5 ovarian was above 100 µM each time.
As for `CC1(C)OC2C(CO[Si](C)(C)C(C)(C)C)OC(n3c(I)c(C#C[Si](C)(C)C)c(=O)[nH]c3=O)C2O1` (stereo not given), the GI50 in the assay with SF-268 CNS was 11.4 µM; in the assay on NCI-H460 lung it was 16.8 µM; in the assay with SK-MEL-5 melanoma, 13.4 µM; in the assay with SNB-75 CNS it was 36.7 µM; in the assay with M14 melanoma it was 13.4 µM; in the assay with MCF7 breast, 11.2 µM. Besides, the GI50 with MALME-3M melanoma is 4.62 µM; in the assay with 786-0 renal, 13.1 µM; in the assay on A498 renal, 32.2 µM; in the assay on OVCAR-5 ovarian it was 18.7 µM. Further, the TGI in the assay with SF-268 CNS is 28.2 µM; with NCI-H460 lung it was 34.2 µM; in the assay with SK-MEL-5 melanoma, 26.2 µM; in the assay on SNB-75 CNS, above 100 µM; with M14 melanoma, 28.1 µM; in the assay on MCF7 breast, 24.3 µM. The TGI with MALME-3M melanoma was 18.6 µM; in the assay on 786-0 renal, 26.8 µM; in the assay on A498 renal, above 100 µM; in the assay on OVCAR-5 ovarian it was 42.8 µM.
`Nc1ncn([C@@H]2O[C@H](CO)[C@@H](O)[C@H]2O)c(=O)n1`: the GI50 is 2.14 µM in the assay with SF-268 CNS; 0.232 µM in the assay on NCI-H460 lung; 2.15 µM with SK-MEL-5 melanoma; 1.63 µM in the assay with SNB-75 CNS; 1.38 µM in the assay with M14 melanoma; 1.24 µM in the assay on MCF7 breast. For the same molecule, the GI50 with MALME-3M melanoma is 3.65 µM; with 786-0 renal, 0.687 µM; with A498 renal, 1.41 µM; with OVCAR-5 ovarian, 2.57 µM. Moreover, the TGI with SF-268 CNS stood at 34.7 µM; with NCI-H460 lung, 1.78 µM; with SK-MEL-5 melanoma, 7.04 µM; in the assay on SNB-75 CNS, 6.2 µM; with M14 melanoma it was 10.8 µM; with MCF7 breast, 18.2 µM. Besides, the TGI in the assay with MALME-3M melanoma is 25.3 µM; with 786-0 renal, 13.8 µM; with A498 renal it was 13.8 µM; with OVCAR-5 ovarian it was above 100 µM.
On to `COc1cc(N=Nc2ccc(O)c3ncccc23)c2ncccc2c1`, for which the GI50 with SF-268 CNS was 2.81 µM; in the assay with NCI-H460 lung it was 3.13 µM; in the assay on SK-MEL-5 melanoma, 2.09 µM; in the assay with SNB-75 CNS, 4.53 µM; in the assay with M14 melanoma it was 2.66 µM; in the assay with MCF7 breast it was 2.18 µM. In addition, the GI50 with MALME-3M melanoma is 4.03 µM; with 786-0 renal it was 3.43 µM; in the assay on A498 renal it was 24.2 µM; with OVCAR-5 ovarian, 7.3 µM. Further, the TGI is above 100 µM with SF-268 CNS; above 100 µM with NCI-H460 lung; 13.3 µM with SK-MEL-5 melanoma; above 100 µM in the assay on SNB-75 CNS; above 100 µM with M14 melanoma; above 100 µM with MCF7 breast. Also, the TGI in the assay on MALME-3M melanoma is 33.7 µM; in the assay on 786-0 renal, 24.2 µM; in the assay on A498 renal, 93.5 µM; with OVCAR-5 ovarian it was above 100 µM.
For `O=C(Cc1ccc(F)c(Cl)c1)Nc1cc(C2(C(F)(F)F)CC2)nn1CC1CCCCC1`, the GI50 in the assay with SF-268 CNS was 3.95 µM; in the assay on NCI-H460 lung it was 3.28 µM; in the assay on SK-MEL-5 melanoma it was 2.61 µM; in the assay with SNB-75 CNS, 0.808 µM; with M14 melanoma, 4.3 µM; in the assay on MCF7 breast it was 4.01 µM. The GI50 in the assay with MALME-3M melanoma was 2.7 µM; in the assay with 786-0 renal it was 4.34 µM; with A498 renal it was 1.52 µM; in the assay on OVCAR-5 ovarian, 4.44 µM. In addition, the TGI with SF-268 CNS was above 15 µM; in the assay on NCI-H460 lung, 8.41 µM; in the assay on SK-MEL-5 melanoma, 4.88 µM; with SNB-75 CNS, 5.99 µM; in the assay with M14 melanoma it was above 15 µM; with MCF7 breast it was above 15 µM. For the same molecule, the TGI in the assay on MALME-3M melanoma is 8.06 µM; in the assay with 786-0 renal, above 15 µM; in the assay on A498 renal, 4.89 µM; with OVCAR-5 ovarian, above 15 µM.
`N=c1c2c(-c3ccccc3)c(-c3ccccc3)n(Cc3ccccc3)c2ncn1C1CCC(O)CC1` (stereo not given): the GI50 in the assay with SF-268 CNS is 0.118 µM; with NCI-H460 lung it was 0.0542 µM; in the assay with SK-MEL-5 melanoma it was 0.511 µM; in the assay on SNB-75 CNS, 0.92 µM; in the assay on M14 melanoma, 0.894 µM; in the assay with MCF7 breast, 0.278 µM. For the same molecule, the GI50 was 0.389 µM with MALME-3M melanoma, 2.12 µM in the assay on 786-0 renal, 0.345 µM in the assay on A498 renal and 5.84 µM in the assay on OVCAR-5 ovarian. Moreover, the TGI in the assay on SF-268 CNS is 15 µM; in the assay with NCI-H460 lung, 1.5 µM; with SK-MEL-5 melanoma, 1.85 µM; in the assay on SNB-75 CNS, 8.85 µM; in the assay with M14 melanoma, 2.38 µM; in the assay on MCF7 breast it was 2.36 µM. Besides, the TGI in the assay on MALME-3M melanoma was determined as 1.68 µM; with 786-0 renal it was 17.3 µM; in the assay with A498 renal, 14.4 µM; in the assay on OVCAR-5 ovarian, 22.4 µM.
